In test [1] the test system is human caspases C1–C10. Description: Caspase selectivity assays (Eurofins/Panlabs), 10 µM 3a. The following applies: 3a at 10 μM. The test is classed as biochemical.
The target in test [2] is proteins of HEK293T cells transiently overexpressing caspase-6 (Homo sapiens, UniProt Q13838). The test is classed as cell-based. The following applies: exp_ref Probe; protein DDX39B (Q13838); analysis C6.
Test [3] concerns the target proteins of HEK293T cells transiently overexpressing caspase-6 (Homo sapiens, UniProt P62633). The test is classed as cell-based. Particulars: exp_ref Probe; protein CNBP (P62633); analysis C6.
The target in test [4] is proteins of HEK293T cells transiently overexpressing caspase-6 (Homo sapiens, UniProt P31946). The test is classed as cell-based. The following applies: exp_ref Probe; protein YWHAB (P31946); analysis C6.
Test [5] deals with proteins of HEK293T cells transiently overexpressing caspase-6 (Homo sapiens, UniProt P43034). The test is classed as cell-based. The following applies: Probe; protein PAFAH1B1 P43034.
Test [6] concerns the target T1, proteins of HEK293T cells transiently overexpressing caspase-6 (Homo sapiens, UniProt P50990).
T1 sequence (P50990 1-548): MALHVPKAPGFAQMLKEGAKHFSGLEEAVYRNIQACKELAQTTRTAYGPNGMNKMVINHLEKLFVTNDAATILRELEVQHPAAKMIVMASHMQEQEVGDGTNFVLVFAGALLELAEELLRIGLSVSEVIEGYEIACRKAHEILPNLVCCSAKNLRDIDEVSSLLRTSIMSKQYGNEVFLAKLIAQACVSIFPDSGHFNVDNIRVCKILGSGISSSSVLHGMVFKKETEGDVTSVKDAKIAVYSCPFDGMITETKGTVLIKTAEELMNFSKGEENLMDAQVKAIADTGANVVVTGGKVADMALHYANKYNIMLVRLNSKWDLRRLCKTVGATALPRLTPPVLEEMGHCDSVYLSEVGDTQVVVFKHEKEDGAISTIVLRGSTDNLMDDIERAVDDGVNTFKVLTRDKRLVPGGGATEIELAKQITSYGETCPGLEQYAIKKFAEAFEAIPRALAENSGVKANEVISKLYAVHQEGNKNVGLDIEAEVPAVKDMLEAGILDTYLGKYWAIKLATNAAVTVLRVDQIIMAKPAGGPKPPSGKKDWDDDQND
The test is classed as cell-based. The following applies: protein CCT8 (P50990).

Test [7] addresses proteins of HEK293T cells transiently overexpressing caspase-6 (Homo sapiens, UniProt P04183). The test is classed as cell-based. Particulars: exp_ref Probe; protein TK1 (P04183); analysis C6.
For test [8], the target named is proteins of HEK293T cells transiently overexpressing caspase-6 (Homo sapiens, UniProt P23526). The test is classed as cell-based. Particulars: exp_ref Probe; protein AHCY (P23526); analysis C6.
The target of test [9] is proteins of HEK293T cells transiently overexpressing caspase-6 (Homo sapiens, UniProt O00571). The test is classed as cell-based. The following applies: exp_ref Probe; protein DDX3X (O00571); analysis C6.
Test [10] has as its target proteins of HEK293T cells transiently overexpressing caspase-6 (Homo sapiens, UniProt P37837). The test is classed as cell-based. Particulars: Probe; protein TALDO1 P37837.
Test [11] addresses proteins of HEK293T cells transiently overexpressing caspase-6 (Homo sapiens, UniProt P11021). The test is classed as cell-based. The following applies: protein HSPA5 (P11021).
In test [12] the target is proteins of HEK293T cells transiently overexpressing caspase-6 (Homo sapiens, UniProt P07195). The test is classed as cell-based.
The target of test [13] is proteins of HEK293T cells transiently overexpressing caspase-6 (Homo sapiens, UniProt P62424). The test is classed as cell-based. Particulars: exp_ref Probe; protein RPL7A (P62424); analysis C6.
For test [14], the target named is T2, proteins of HEK293T cells transiently overexpressing caspase-6 (Homo sapiens, UniProt Q92945).
T2 sequence (Q92945 1-711): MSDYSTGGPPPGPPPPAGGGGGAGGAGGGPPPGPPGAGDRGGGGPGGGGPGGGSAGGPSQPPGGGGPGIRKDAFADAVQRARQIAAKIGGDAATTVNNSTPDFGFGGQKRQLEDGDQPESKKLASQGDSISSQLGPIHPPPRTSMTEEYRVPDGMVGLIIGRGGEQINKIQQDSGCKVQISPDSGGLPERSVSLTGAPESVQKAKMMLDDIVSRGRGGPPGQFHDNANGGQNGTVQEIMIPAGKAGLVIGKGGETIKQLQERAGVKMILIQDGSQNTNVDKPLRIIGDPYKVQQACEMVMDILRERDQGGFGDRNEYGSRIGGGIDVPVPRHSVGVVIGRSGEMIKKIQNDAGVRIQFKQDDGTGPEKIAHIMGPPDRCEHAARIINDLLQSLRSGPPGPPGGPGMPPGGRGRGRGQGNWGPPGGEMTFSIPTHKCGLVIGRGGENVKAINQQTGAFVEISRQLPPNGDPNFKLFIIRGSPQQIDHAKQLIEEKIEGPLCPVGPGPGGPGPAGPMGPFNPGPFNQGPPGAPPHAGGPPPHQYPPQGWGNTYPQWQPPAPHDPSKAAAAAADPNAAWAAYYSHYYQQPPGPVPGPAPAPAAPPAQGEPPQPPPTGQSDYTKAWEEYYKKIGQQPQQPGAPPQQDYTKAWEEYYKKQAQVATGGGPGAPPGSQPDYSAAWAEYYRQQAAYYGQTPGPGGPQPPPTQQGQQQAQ
The test is classed as cell-based. Particulars: protein KHSRP (Q92945).

Test [15] deals with proteins of HEK293T cells transiently overexpressing caspase-6 (Homo sapiens, UniProt Q99729). The test is classed as cell-based. Particulars: Probe; protein HNRNPAB Q99729.
In test [16] the target is proteins of HEK293T cells transiently overexpressing caspase-6 (Homo sapiens, UniProt P04843). The test is classed as cell-based. The following applies: exp_ref Probe; protein RPN1 (P04843); analysis C6.
Sequence of proteins of HEK293T cells transiently overexpressing caspase-6 (Homo sapiens, UniProt P04843) (P04843 24-607): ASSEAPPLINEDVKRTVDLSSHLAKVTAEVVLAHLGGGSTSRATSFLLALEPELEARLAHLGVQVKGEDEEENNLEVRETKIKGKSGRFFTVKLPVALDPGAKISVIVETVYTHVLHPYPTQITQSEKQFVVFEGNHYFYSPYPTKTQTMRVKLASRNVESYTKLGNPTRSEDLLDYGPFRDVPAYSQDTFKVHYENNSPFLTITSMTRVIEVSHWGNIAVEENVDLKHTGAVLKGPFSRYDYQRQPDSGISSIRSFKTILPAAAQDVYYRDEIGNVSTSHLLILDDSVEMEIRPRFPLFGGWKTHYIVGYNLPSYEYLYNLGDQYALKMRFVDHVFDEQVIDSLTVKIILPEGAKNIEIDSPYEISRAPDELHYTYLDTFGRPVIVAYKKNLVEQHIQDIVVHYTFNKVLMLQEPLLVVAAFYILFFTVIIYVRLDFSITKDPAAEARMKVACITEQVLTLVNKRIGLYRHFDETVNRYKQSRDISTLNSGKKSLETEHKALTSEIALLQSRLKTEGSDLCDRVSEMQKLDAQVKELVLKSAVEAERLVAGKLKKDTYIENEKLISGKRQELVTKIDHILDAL

Sequence of proteins of HEK293T cells transiently overexpressing caspase-6 (Homo sapiens, UniProt P11021) (P11021 19-654): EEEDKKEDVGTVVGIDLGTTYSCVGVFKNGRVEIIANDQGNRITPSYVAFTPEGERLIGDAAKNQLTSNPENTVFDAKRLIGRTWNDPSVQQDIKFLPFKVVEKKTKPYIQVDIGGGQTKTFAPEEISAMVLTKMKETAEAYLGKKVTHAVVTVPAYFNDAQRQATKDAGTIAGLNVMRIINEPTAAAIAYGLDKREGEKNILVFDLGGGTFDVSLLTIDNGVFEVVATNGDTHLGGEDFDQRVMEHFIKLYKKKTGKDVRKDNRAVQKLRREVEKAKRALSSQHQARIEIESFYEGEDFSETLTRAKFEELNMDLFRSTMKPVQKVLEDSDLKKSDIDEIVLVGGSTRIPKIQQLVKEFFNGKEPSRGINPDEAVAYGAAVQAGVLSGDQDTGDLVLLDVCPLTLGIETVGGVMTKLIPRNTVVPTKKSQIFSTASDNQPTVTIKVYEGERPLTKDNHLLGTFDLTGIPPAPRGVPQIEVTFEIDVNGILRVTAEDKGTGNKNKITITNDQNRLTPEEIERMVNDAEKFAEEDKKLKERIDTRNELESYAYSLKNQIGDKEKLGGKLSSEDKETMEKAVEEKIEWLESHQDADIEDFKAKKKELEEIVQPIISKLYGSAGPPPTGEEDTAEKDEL
Sequence of proteins of HEK293T cells transiently overexpressing caspase-6 (Homo sapiens, UniProt P07195) (P07195 whole entry): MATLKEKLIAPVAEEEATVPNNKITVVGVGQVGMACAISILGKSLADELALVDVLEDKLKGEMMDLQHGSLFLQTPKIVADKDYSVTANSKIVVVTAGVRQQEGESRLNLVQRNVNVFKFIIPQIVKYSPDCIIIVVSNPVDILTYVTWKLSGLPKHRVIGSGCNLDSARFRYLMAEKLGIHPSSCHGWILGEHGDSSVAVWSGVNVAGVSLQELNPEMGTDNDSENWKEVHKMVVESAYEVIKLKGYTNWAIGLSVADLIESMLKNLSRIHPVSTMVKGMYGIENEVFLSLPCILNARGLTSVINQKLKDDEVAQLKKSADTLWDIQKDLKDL
Sequence of proteins of HEK293T cells transiently overexpressing caspase-6 (Homo sapiens, UniProt P43034) (P43034 whole entry): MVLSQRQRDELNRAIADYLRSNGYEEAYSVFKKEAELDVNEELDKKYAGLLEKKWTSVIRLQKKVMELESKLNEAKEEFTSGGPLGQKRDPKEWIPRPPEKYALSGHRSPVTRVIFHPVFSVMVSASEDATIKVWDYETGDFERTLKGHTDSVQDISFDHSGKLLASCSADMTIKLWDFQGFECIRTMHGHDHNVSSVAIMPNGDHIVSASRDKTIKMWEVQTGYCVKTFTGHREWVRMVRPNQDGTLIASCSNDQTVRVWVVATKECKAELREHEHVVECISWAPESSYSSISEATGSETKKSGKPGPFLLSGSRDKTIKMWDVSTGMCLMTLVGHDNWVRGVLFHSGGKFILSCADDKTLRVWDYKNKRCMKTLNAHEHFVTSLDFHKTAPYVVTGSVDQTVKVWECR
Sequence of proteins of HEK293T cells transiently overexpressing caspase-6 (Homo sapiens, UniProt P23526) (P23526 whole entry): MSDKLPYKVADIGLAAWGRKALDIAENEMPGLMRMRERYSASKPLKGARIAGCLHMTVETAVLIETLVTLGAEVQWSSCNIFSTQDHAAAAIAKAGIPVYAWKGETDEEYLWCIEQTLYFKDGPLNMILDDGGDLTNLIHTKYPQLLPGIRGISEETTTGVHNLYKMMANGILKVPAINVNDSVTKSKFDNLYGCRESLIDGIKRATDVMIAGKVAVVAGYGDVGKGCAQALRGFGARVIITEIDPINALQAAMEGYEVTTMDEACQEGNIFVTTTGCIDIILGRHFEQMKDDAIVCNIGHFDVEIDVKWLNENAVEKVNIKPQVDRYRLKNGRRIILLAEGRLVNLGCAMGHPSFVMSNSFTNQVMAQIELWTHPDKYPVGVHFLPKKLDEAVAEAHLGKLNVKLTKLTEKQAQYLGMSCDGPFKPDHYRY
Sequence of proteins of HEK293T cells transiently overexpressing caspase-6 (Homo sapiens, UniProt O00571) (O00571 whole entry): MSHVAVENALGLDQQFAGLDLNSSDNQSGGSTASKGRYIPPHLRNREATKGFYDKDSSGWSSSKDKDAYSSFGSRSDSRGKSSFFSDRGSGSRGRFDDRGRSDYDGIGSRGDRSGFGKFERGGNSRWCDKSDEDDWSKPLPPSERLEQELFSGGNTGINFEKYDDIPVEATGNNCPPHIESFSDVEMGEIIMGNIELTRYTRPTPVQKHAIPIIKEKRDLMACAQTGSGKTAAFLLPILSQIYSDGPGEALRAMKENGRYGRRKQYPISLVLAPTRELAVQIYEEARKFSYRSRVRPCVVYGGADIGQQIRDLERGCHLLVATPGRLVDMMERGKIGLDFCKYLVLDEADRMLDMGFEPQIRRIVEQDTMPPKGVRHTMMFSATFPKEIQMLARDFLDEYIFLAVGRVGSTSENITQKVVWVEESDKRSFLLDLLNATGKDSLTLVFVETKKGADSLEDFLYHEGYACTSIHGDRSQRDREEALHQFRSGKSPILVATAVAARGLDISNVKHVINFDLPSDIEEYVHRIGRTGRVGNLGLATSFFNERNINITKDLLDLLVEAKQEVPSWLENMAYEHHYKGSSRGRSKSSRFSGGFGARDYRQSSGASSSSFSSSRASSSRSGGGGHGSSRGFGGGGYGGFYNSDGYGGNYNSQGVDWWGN
Sequence of proteins of HEK293T cells transiently overexpressing caspase-6 (Homo sapiens, UniProt P62633) (P62633 whole entry): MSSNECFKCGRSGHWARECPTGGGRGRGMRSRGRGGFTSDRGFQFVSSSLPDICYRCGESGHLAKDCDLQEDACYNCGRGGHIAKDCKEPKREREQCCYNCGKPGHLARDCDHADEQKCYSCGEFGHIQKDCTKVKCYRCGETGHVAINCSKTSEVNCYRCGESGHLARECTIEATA
Sequence of proteins of HEK293T cells transiently overexpressing caspase-6 (Homo sapiens, UniProt P31946) (P31946 whole entry): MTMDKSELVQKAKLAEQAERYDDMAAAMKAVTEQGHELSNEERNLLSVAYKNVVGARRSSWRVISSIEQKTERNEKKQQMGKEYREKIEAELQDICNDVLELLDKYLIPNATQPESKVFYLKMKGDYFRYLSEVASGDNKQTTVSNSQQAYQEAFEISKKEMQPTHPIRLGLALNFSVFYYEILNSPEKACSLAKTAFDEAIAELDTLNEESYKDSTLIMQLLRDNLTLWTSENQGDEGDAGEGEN
Sequence of proteins of HEK293T cells transiently overexpressing caspase-6 (Homo sapiens, UniProt Q13838) (Q13838 whole entry): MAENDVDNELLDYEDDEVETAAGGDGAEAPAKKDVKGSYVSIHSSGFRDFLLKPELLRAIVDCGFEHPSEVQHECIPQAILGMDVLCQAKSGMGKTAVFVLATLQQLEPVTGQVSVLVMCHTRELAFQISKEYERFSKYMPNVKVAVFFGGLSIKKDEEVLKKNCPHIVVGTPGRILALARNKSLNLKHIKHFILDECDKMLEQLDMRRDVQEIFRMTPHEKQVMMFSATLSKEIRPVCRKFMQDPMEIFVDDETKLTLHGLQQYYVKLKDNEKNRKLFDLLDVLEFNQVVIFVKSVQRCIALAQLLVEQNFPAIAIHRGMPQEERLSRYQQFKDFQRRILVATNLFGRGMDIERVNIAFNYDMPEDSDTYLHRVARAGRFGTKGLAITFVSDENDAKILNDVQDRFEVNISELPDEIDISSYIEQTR
Sequence of proteins of HEK293T cells transiently overexpressing caspase-6 (Homo sapiens, UniProt Q99729) (Q99729 whole entry): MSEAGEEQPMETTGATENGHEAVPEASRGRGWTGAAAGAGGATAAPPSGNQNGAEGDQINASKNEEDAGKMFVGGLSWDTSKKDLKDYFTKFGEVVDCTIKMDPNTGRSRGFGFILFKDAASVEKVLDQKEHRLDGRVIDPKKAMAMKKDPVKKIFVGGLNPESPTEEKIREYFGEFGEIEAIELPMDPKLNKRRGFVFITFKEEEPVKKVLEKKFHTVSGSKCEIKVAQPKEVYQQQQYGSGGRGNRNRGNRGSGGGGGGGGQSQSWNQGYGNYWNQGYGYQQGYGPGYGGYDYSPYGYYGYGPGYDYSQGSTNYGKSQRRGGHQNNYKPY
Sequence of proteins of HEK293T cells transiently overexpressing caspase-6 (Homo sapiens, UniProt P37837) (P37837 whole entry): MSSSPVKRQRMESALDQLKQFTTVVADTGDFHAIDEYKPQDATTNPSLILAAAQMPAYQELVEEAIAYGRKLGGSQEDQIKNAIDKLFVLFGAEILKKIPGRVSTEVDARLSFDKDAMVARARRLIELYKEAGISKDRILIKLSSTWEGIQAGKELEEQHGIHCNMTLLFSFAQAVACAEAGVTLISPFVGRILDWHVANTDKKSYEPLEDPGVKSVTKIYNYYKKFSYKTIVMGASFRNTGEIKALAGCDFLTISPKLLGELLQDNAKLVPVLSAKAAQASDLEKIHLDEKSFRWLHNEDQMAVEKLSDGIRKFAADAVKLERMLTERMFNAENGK
Sequence of proteins of HEK293T cells transiently overexpressing caspase-6 (Homo sapiens, UniProt P04183) (P04183 whole entry): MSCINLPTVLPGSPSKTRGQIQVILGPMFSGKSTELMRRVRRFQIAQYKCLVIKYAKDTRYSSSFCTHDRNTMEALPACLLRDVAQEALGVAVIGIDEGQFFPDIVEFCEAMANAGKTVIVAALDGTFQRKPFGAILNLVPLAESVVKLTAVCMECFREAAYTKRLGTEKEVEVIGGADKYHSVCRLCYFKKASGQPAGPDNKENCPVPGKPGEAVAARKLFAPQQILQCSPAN

Consider `C=CS(=O)(=O)N1C[C@H](C(=O)Nc2ccc(OC(F)(F)F)cc2)C[C@@H](c2ccccc2)C1` [3a], for which the “effect on the other caspase isoforms (in words)” value in [1] was “little, if any, effect”.
Take `C#CCOc1ccc([C@@H]2C[C@@H](C(=O)Nc3ccc(OC(F)(F)F)cc3)CN(S(=O)(=O)C=C)C2)cc1` (relative stereo) [13-t]: the enrich.exp.med in test [2] is 0.9779; in [3] it was -0.4177; in test [4] it was -0.2081; in [5], -1.169; in test [6] (exp_ref Probe, analysis C6), 0.932; in test [7] it was 1.0337. Also, the enrich.exp.med in test [8] is 0.06916; in test [9], 0.1246; in [10], -1.23; in [11] (exp_ref Probe, analysis C6) it was 0.9475; in [12] (Probe, protein LDHB P07195) it was -0.537; in test [13], 0.8961. Further, the enrich.exp.med was 0.3732 in test [14] (exp_ref Probe, analysis C6); -0.4603 in test [15]; 1.117 in test [16]. Also, the enrich.exp.med.lin in test [6] amounted to 1.908; in [11], 1.929; in [12] (protein LDHB (P07195)), 0.6892; in test [14], 1.295. In addition, the enrich.exp.med.log2 in [6] is 0.932; in test [11], 0.9475; in test [12] (protein LDHB (P07195)) it was -0.537; in test [14], 0.3732.

For the origin of these results see PMC10176470, “Engaging a Non-catalytic Cysteine Residue Drives Potent and Selective Inhibition of Caspase-6” (Journal of the American Chemical Society, 2023).
